Reference: US9422308B2, “Derivatives of docosahexaenoylethanolamide and uses thereof” (The United States of America, as represented by the …, priority 2012, dated 2016)
“And” between values parts separate entries of the source, which are not always exact repeats. Identical values can stand only once. Like-named read-outs stand apart in the source and are kept apart here.

Assay: pharmacokinetics, plasma and brain, after IP dose in mice
Format: in vivo
Conditions: male C57BL/6 mice
Description: Each time point is […], with 11 time points=33 animals. Each time point was done in triplicate (N=3). The brain and plasma from each animal was analyzed.
Formulation preparation: • IP: 5% DMAC+5% Solutol HS15+90% Saline • 50 mg/kg, 10 mL/kg
Analytical method: • Instrument: LCMSMS-6 (Agilent 6410, triple quadrupole) • Matrix: Mouse plasma and brain homogenate • Analyte(s): NCGC00248435-03 • Internal standard(s): Diclofenac • MS conditions: Positive, ESI • MRM detection • NCGC00248435-03: [M+H]+m/z 400.3→72.2 • Diclofenac: [M+H]+m/z 296.0→214.0
(§1) For plasma samples: An aliquot of 30 μL plasma sample was added with 100 μL ACN (including Diclofenac, 50 ng/mL) for protein precipitation. The mixture was vortexed for 2 min and centrifuged at 12000 rpm for 5 min. The 8 μL supernatant was injected into LC-MS/MS for analysis.
as §1, with “For brain” for “For plasma”, “samples: Brain sample was homogenized for 2 min with 3 volumes (v/w) of homogenizing solution.” for “samples:”, “μL brain homogenate” for “μL plasma”
The IP dosing solution was prepared in 5% DMAC+5% SolutolHS15+90% Saline. Brain was homogenized with 3 volumes (v/w) of PBS (pH7.4) and then analyzed with LC-MS/MS. The Brain concentration was corrected with a dilution factor of 4 as following: Brain concentration=Brain homogenate conc.×4, assuming 1 g wet brain equals to 1 mL. BQL=Below quantifiable limit of 1 ng/mL for NCGC00248435-03 in male C57BL/6 plasma and brain homogenate samples. NA=Not available.

**Q.** With `CC/C=C\C/C=C\C/C=C\C/C=C\C/C=C\C/C=C\CCC(=O)NCC(C)(C)O` [Compound 1, (4Z,7Z,10Z,13Z,16Z,19Z)—N-(2-hydroxy-2-methylpropyl)docosa-4,7,10,13,16,19-hexaenamide] as the molecule, how does the “clinical observation post dose” value (IP 50 mg/kg, all animals) read?
**A.** The value was “Slight mobility reduction”.

**Q.** What about the “duration of mobility reduction post dose” value (IP 50 mg/kg, all animals) of the same molecule?
**A.** Its value is 1 h.

**Q.** What about the “brain concentration Dose Normalized Mean” value (brain, 0.083 hr, IP 50 mg/kg) of the same molecule?
**A.** The value was 0.024.

**Q.** And the “brain Concentration Individual” value (brain, 0.083 hr, IP 50 mg/kg, 3 animals, listed as NCGC00248435-03, 50 mg/kg)?
**A.** The value was 310 ng/g and 551 ng/g.

**Q.** What about the “brain concentration Dose Normalized Mean” value (brain, 0.25 hr, IP 50 mg/kg) of the same molecule?
**A.** Its value is 0.054.

**Q.** What about the “brain Concentration Individual” value (brain, 0.25 hr, IP 50 mg/kg, 3 animals, listed as NCGC00248435-03, 50 mg/kg) of the same molecule?
**A.** Its value is 1081 ng/g and 1330 ng/g.

**Q.** And the “brain concentration Dose Normalized Mean” value (brain, 0.5 hr, IP 50 mg/kg)?
**A.** Its value is 0.236.

**Q.** What about the “brain Concentration Individual” value (brain, 0.5 hr, IP 50 mg/kg, 3 animals, listed as NCGC00248435-03, 50 mg/kg) of the same molecule?
**A.** The value was 5013 ng/g and 3992 ng/g.

**Q.** What about the “brain concentration Dose Normalized Mean” value (brain, 1 hr, IP 50 mg/kg) of the same molecule?
**A.** Its value is 0.152.

**Q.** And the “brain Concentration Individual” value (brain, 1 hr, IP 50 mg/kg, 3 animals, listed as NCGC00248435-03, 50 mg/kg)?
**A.** The value was 2086 ng/g and 3367 ng/g.

**Q.** And the “brain concentration Dose Normalized Mean” value (brain, 2 hr, IP 50 mg/kg)?
**A.** Its value is 0.089.

**Q.** And the “brain Concentration Individual” value (brain, 2 hr, IP 50 mg/kg, 3 animals, listed as NCGC00248435-03, 50 mg/kg)?
**A.** Its value is 2463 ng/g and 1494 ng/g.

**Q.** What about the “brain concentration Dose Normalized Mean” value (brain, 3 hr, IP 50 mg/kg) of the same molecule?
**A.** The value was 0.075.

**Q.** And the “brain Concentration Individual” value (brain, 3 hr, IP 50 mg/kg, 3 animals, listed as NCGC00248435-03, 50 mg/kg)?
**A.** The value was 1410 ng/g and 1152 ng/g.

**Q.** What about the “brain concentration Dose Normalized Mean” value (brain, 4 hr, IP 50 mg/kg) of the same molecule?
**A.** Its value is 0.017.

**Q.** What about the “brain Concentration Individual” value (brain, 4 hr, IP 50 mg/kg, 3 animals, listed as NCGC00248435-03, 50 mg/kg) of the same molecule?
**A.** Its value is 234 ng/g and 585 ng/g and 179 ng/g.

**Q.** And the “brain concentration Dose Normalized Mean” value (brain, 8 hr, IP 50 mg/kg)?
**A.** The value was 0.001.

**Q.** And the “brain Concentration Individual” value (brain, 8 hr, IP 50 mg/kg, 3 animals, listed as NCGC00248435-03, 50 mg/kg)?
**A.** The value was 13.5 ng/g.

**Q.** And the “brain concentration Dose Normalized Mean” value (brain, 12 hr, IP 50 mg/kg)?
**A.** Its value is “BQL (Below quantifiable limit of 1 ng/mL for NCGC00248435-03 in male C57BL/6 plasma and brain homogenate samples)”.

**Q.** What about the “brain concentration Mean” value (brain, 12 hr, IP 50 mg/kg) of the same molecule?
**A.** Its value is “BQL (Below quantifiable limit of 1 ng/mL for NCGC00248435-03 in male C57BL/6 plasma and brain homogenate samples)”.

**Q.** And the “brain Concentration Individual” value (brain, 12 hr, IP 50 mg/kg, 3 animals)?
**A.** The value was “BQL (Below quantifiable limit of 1 ng/mL for NCGC00248435-03 in male C57BL/6 plasma and brain homogenate samples)”.

**Q.** And the “brain concentration Dose Normalized Mean” value (brain, 24 hr, IP 50 mg/kg)?
**A.** The value was “BQL (Below quantifiable limit of 1 ng/mL for NCGC00248435-03 in male C57BL/6 plasma and brain homogenate samples)”.

**Q.** What about the “brain concentration Mean” value (brain, 24 hr, IP 50 mg/kg) of the same molecule?
**A.** The value was “BQL (Below quantifiable limit of 1 ng/mL for NCGC00248435-03 in male C57BL/6 plasma and brain homogenate samples)”.

**Q.** What about the “brain Concentration Individual” value (brain, 24 hr, IP 50 mg/kg, 3 animals) of the same molecule?
**A.** Its value is “BQL (Below quantifiable limit of 1 ng/mL for NCGC00248435-03 in male C57BL/6 plasma and brain homogenate samples)”.

**Q.** And the “AUCbrain(AUClast)” value (brain, IP 50 mg/kg)?
**A.** Its value is 8458 ng·h/mL.

**Q.** And the concentration at 0.083 hr (male, C57BL/6, mouse, brain, ip, 50 mg/kg, brain, 0.083 hr, 3 animals, read-out: brain Concentration Individual)?
**A.** Its concentration at 0.083 hr is 554 ng/g.

**Q.** And the concentration at 0.083 hr (male, C57BL/6, mouse, brain, ip, 50 mg/kg, brain, 0.083 hr, read-out: brain concentration Mean)?
**A.** The concentration at 0.083 hr was 472 ng/g and 1.18 µM.

**Q.** And the concentration at 0.25 hr (male, C57BL/6, mouse, brain, ip, 50 mg/kg, brain, 0.25 hr, 3 animals, read-out: brain Concentration Individual)?
**A.** Its concentration at 0.25 hr is 853 ng/g.

**Q.** And the concentration at 0.25 hr (male, C57BL/6, mouse, brain, ip, 50 mg/kg, brain, 0.25 hr, read-out: brain concentration Mean)?
**A.** The concentration at 0.25 hr was 1090 ng/g and 2.72 µM.

**Q.** And the concentration at 0.5 hr (male, C57BL/6, mouse, brain, ip, 50 mg/kg, brain, 0.5 hr, 3 animals, read-out: brain Concentration Individual)?
**A.** The concentration at 0.5 hr was 5110 ng/g.

**Q.** What about the concentration at 0.5 hr (male, C57BL/6, mouse, brain, ip, 50 mg/kg, brain, 0.5 hr, read-out: brain concentration Mean) of the same molecule?
**A.** The concentration at 0.5 hr was 4710 ng/g and 11.8 µM.

**Q.** And the concentration at 1 hr (male, C57BL/6, mouse, brain, ip, 50 mg/kg, brain, 1 hr, 3 animals, read-out: brain Concentration Individual)?
**A.** The concentration at 1 hr was 3650 ng/g.

**Q.** What about the concentration at 1 hr (male, C57BL/6, mouse, brain, ip, 50 mg/kg, brain, 1 hr, read-out: brain concentration Mean) of the same molecule?
**A.** Its concentration at 1 hr is 3040 ng/g and 7.59 µM.

**Q.** And the concentration at 2 hr (male, C57BL/6, mouse, brain, ip, 50 mg/kg, brain, 2 hr, 3 animals, read-out: brain Concentration Individual)?
**A.** Its concentration at 2 hr is 1380 ng/g.

**Q.** And the concentration at 2 hr (male, C57BL/6, mouse, brain, ip, 50 mg/kg, brain, 2 hr, read-out: brain concentration Mean)?
**A.** The concentration at 2 hr was 1780 ng/g and 4.45 µM.

**Q.** And the concentration at 3 hr (male, C57BL/6, mouse, brain, ip, 50 mg/kg, brain, 3 hr, 3 animals, read-out: brain Concentration Individual)?
**A.** Its concentration at 3 hr is 1930 ng/g.

**Q.** What about the concentration at 3 hr (male, C57BL/6, mouse, brain, ip, 50 mg/kg, brain, 3 hr, read-out: brain concentration Mean) of the same molecule?
**A.** Its concentration at 3 hr is 1500 ng/g and 3.75 µM.

**Q.** And the concentration at 4 hr (male, C57BL/6, mouse, brain, ip, 50 mg/kg, brain, 4 hr, read-out: brain concentration Mean)?
**A.** The concentration at 4 hr was 333 ng/g and 833 nM.

**Q.** And the concentration at 8 hr (male, C57BL/6, mouse, brain, ip, 50 mg/kg, brain, 8 hr, 3 animals, read-out: brain Concentration Individual)?
**A.** Its concentration at 8 hr is 8.94 ng/g.

**Q.** And the concentration at 8 hr (male, C57BL/6, mouse, brain, ip, 50 mg/kg, brain, 8 hr, read-out: brain concentration Mean)?
**A.** Its concentration at 8 hr is 12 ng/g and 30 nM.

**Q.** What about the concentration at 0.083 hr (male, C57BL/6, mouse, plasma, ip, 50 mg/kg, plasma, 0.083 hr, 3 animals, read-out: plasma Concentration Individual) of the same molecule?
**A.** The concentration at 0.083 hr was 2090 ng/mL.

**Q.** What about the concentration at 0.083 hr (male, C57BL/6, mouse, plasma, ip, 50 mg/kg, plasma, 0.083 hr, read-out: plasma concentration Mean) of the same molecule?
**A.** The concentration at 0.083 hr was 2620 ng/mL and 6.56 µM.

**Q.** And the concentration at 0.25 hr (male, C57BL/6, mouse, plasma, ip, 50 mg/kg, plasma, 0.25 hr, 3 animals, read-out: plasma Concentration Individual)?
**A.** The concentration at 0.25 hr was 6550 ng/mL.
